From patent publication US11618746B2, “Inhibitors of APOL1 and methods of using same” (Vertex Pharmaceuticals Incorporated, priority 2018, dated 2023)

biological target: T1, APOL1 G1 Protein (Homo sapiens, UniProt O14791, I384M/S342G); assay: Trypanosoma brucei brucei lysis assay using APOL1 recombinant protein (AlamarBlue viability readout); assay type: cell-based; details: Trypanosoma brucei brucei (Lister 427 VSG 221 bloodstream form) lysis by 0.05 μg/mL recombinant APOL1 G1, 16 hrs
T1 sequence (O14791 28-398 S342G/I384M): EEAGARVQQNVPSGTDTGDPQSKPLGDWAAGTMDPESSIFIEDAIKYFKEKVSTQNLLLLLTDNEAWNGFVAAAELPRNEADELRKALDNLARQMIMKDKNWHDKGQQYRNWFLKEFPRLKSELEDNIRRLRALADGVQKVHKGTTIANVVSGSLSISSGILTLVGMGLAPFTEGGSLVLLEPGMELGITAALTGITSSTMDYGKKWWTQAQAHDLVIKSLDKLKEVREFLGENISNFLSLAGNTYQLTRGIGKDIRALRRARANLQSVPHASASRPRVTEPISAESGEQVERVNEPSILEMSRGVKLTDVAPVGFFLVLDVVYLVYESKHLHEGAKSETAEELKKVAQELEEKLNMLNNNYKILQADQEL
Description: Trypanosoma brucei brucei is a blood stream parasite to which human, gorillas and baboon are immune due to the presence of the APOL1 protein in their HDL particles. The protein is uptaken by the parasite via the TbHpHb receptor located in its flagellar pocket and is bonded by the Hpr protein contained in the HDL particles which triggers the receptor endocytosis by the parasite.
Following endocytosis, the formed vesicle containing the HDL particle matures from early to late endosome, and subsequently to lysosome. The concomitant pH change in the lumen of the vesicle triggers the insertion of the APOL1 protein into the membrane of the late endosome/lysosome and hereby triggers lysosomal membrane premeabilisation and as a further downstream event, trypanosome lysis. Trypanosoma brucei brucei is sensitive to lysis by all three APOL1 variants (G0, G1, and G2).
The Trypanosoma brucei brucei lysis assay is a lysis assay of the parasite using recombinant APOL1 protein variant followed by a fluorescent detection method of viability by the addition of AlamarBlue reagent to the assay well, a general metabolic redox indicator (AlamarBlue assay).
Briefly, the AlamarBlue active compound, the resazurin, a blue, water soluble, non-toxic and cell permeable molecule, which can be followed by absorbance, is reduced by various metabolic pathways into resorufin, a red compound which can be followed by either absorbance or fluorescence. The assay allows the calculation of the percent viability (percent of living Trypanosomes remaining in each well) at the end of a lysis relative to the untreated condition by interpolation of fluorescent values (FLU) on a standard curve with a known amount of seeded trypanosome/well.
Trypanosoma brucei brucei (ATCC, Cat. No. PRA-382) • Lister 427 VSG 221 bloodstream form.
Thaw/Expansion Media (ATCC Medium 2834 Modified HMI-9 Medium)
Equipment • E1-Clip Tip pipette 12 channel adjustable 2-125 μL, Cat. No. 4672070BT • ThermoFisher MultiDrop 384, Cat. No. 5840300 • Multidrop • Agilent Bravo, Cat. No. G5409A • Bravo • SpectraMax M5
Trypanosoma brucei brucei Culture
Step 2, Day 4 • Centrifuge at 800×g for 5 minutes at room temperature. • Resuspend in 1 mL media. • Make a 1:25 fold dilution (10 μL/240 μL media). • Count on a hemocytometer (after adding parasites). • Let sit for 1-2 minutes for the parasites to settle. • Count should be approximately 100 viable motile parasites/16 grid or approximately 25×10^6 parasites/flask. • Passage the parasites by adding 1×10^6 parasites/T75 flask in 20 mL media. • Passage the parasites by adding 2.33×10^6 parasites/T175 flask in 46.6 mL media. • For every T75 flask should make enough for approximately 1.5×384 well assay plates. • For every T175 flask should make enough for approximately 3.8×384 well assay plates.
Step 3. Day 6 • Centrifuge at 800×g for 5 minutes. • Resuspend in 3 mL assay media (No phenol red, no FBS) per 75 starting flask. • Resuspend in 7 mL assay media (No phenol red, no FBS) per 175 flask • Make a 1:25 fold dilution. • Count by hemocytometer. • Every T75 flask set up should have approximately 75×10^6 parasites/flask (verify doubling time=8.7 hrs 1 hr). • Every T175 flask set up should have approximately 175×10^6 parasites/flask (verify doubling time=8.7 hrs±1 hr). • Require 46×10^6 parasites per 384 well plate (at 120,000 parasites per well).
Step 2, Day 2 • Centrifuge at 800×g for 5 minutes at room temperature. • Resuspend in 1 mL media. • Make a 1:25 fold dilution (10 L/240 μL media). • Let sit for 1-2 minutes for the parasites to settle. • Count should be approximately 100 viable motile parasites/16 grid or approximately 8×10^6 parasites per flask. • Passage the parasites by adding 1.25×10^6 parasites per T75 flask in 20 mL media. • For every T75 flask set up should have approximately 1.5×384 well assay plates. • For every T175 flask setup should have approximately 3.8×384 well assay plates. […]

`O=C1NC[C@@H](O)[C@@H]1NC(=O)C(F)(F)Cc1c(-c2ccc(F)cc2)[nH]c2c(F)cc(F)cc12` [Compound 95, 3-[5,7-difluoro-2-(4-fluorophenyl)-1H-indol-3-yl]-2,2-difluoro-N-[(3S,4R)-4-hydroxy-2-oxo-pyrrolidin-3-yl]propanamide] and `O=C(CCc1c(-c2ccc(F)cc2)[nH]c2c(F)cc(C(F)(F)F)cc12)N[C@@H]1C(=O)NC[C@H]1O` [Compound 101, 3-[7-fluoro-2-(4-fluorophenyl)-5-(trifluoromethyl)-1H-indol-3-yl]-N-[(3S,4R)-4-hydroxy-2-oxo-pyrrolidin-3-yl]propanamide] cannot be ordered by IC50: < 250 nM for the first, < 250 nM for the second.

`Cc1c(F)c(F)cc2c(CCC(=O)N[C@@H]3C(=O)NC[C@H]3O)c(-c3ccc(F)cc3)[nH]c12` [Compound 98, 3-[5,6-difluoro-2-(4-fluorophenyl)-7-methyl-1H-indol-3-yl]-N-[(3S,4R)-4-hydroxy-2-oxo-pyrrolidin-3-yl]propanamide] and `Cc1c(F)c(F)cc2c(CCC(=O)N[C@@H]3C(=O)NC[C@H]3O)c(-c3ccccc3)[nH]c12` [Compound 99, 3-(5,6-difluoro-7-methyl-2-phenyl-1H-indol-3-yl)-N-[(3S,4R)-4-hydroxy-2-oxo-pyrrolidin-3-yl]propanamide] cannot be ordered by IC50: < 250 nM for the first, < 250 nM for the second.

Compared with `O=C(CCc1c(-c2ccc(OC(F)F)cc2)[nH]c2c(F)cc(F)cc12)N[C@@H]1C(=O)NC[C@H]1O` [Compound 102], `O=C(CCc1c(-c2ccc(F)cc2)[nH]c2c(OC(F)F)cc(F)cc12)N[C@@H]1C(=O)NC[C@H]1O` [Compound 107] is higher in IC50: < 250 nM for the first, 250 to 1000 nM for the second.

`O=C(CCc1c(-c2cccc(F)c2)[nH]c2c(F)cc(F)cc12)N[C@@H]1C(=O)NC[C@H]1O` [Compound 103] and `O=C(CCc1c(-c2ccc(F)c(F)c2)[nH]c2c(F)cc(F)cc12)N[C@@H]1C(=O)NC[C@H]1O` [Compound 105] cannot be ordered by IC50: < 250 nM for the first, < 250 nM for the second.

Compared with `O=C(CCc1c(-c2cc(F)cc(F)c2)[nH]c2c(F)cc(F)cc12)N[C@@H]1C(=O)NC[C@H]1O` [Compound 104], `O=C(CCc1c(-c2cc(F)cc(F)c2)[nH]c2ccccc12)N[C@@H]1C(=O)NC[C@H]1O` [Compound 127, 3-[2-(3,5-difluorophenyl)-1H-indol-3-yl]-N-[(3S,4R)-4-hydroxy-2-oxo-pyrrolidin-3-yl]propanamide] is higher in IC50: < 250 nM for the first, 250 to 1000 nM for the second.

`O=C(CCc1c(-c2ccc(F)cc2)[nH]c2ccc(C(F)(F)F)cc12)N[C@@H]1C(=O)NC[C@H]1O` [Compound 108, 3-[2-(4-fluorophenyl)-5-(trifluoromethyl)-1H-indol-3-yl]-N-[(3S,4R)-4-hydroxy-2-oxo-pyrrolidin-3-yl]propanamide] and `O=C(CCc1c(-c2ccc(C(F)(F)F)cc2)[nH]c2ccccc12)N[C@@H]1C(=O)NC[C@H]1O` [Compound 123] cannot be ordered by IC50: < 250 nM for the first, < 250 nM for the second.

First: O=C(CCc1c(-c2ccccc2)[nH]c2cc(F)ccc12)N[C@@H]1C(=O)NC[C@H]1O [Compound 109, 3-(6-fluoro-2-phenyl-1H-indol-3-yl)-N-[(3S,4R)-4-hydroxy-2-oxo-pyrrolidin-3-yl]propanamide]
Second: O=C(CCc1c(-c2ccccc2)[nH]c2cccc(F)c12)N[C@@H]1C(=O)NC[C@H]1O [Compound 114, 3-(4-fluoro-2-phenyl-1H-indol-3-yl)-N-[(3S,4R)-4-hydroxy-2-oxo-pyrrolidin-3-yl]propanamide]
The IC50 of the first is lower: < 250 nM for the first, 250 to 1000 nM for the second.

Going from `O=C(CCc1c(-c2ccccc2)[nH]c2c(C(F)(F)F)cccc12)N[C@@H]1C(=O)NC[C@H]1O` [Compound 112, N-[(3S,4R)-4-hydroxy-2-oxo-pyrrolidin-3-yl]-3-[2-phenyl-7-(trifluoromethyl)-1H-indol-3-yl]propanamide] to `O=C(CCc1c(-c2ccc(OC(F)(F)F)cc2)[nH]c2ccccc12)N[C@@H]1C(=O)NC[C@H]1O` [Compound 118], the IC50 falls from > 1000 nM to < 250 nM. The second is the more potent here.

`N#Cc1ccc(-c2[nH]c3ccccc3c2CCC(=O)N[C@@H]2C(=O)NC[C@H]2O)cc1` [Compound 116, 3-[2-(4-cyanophenyl)-1H-indol-3-yl]-N-[(3S,4R)-4-hydroxy-2-oxo-pyrrolidin-3-yl]propanamide] and `Cc1ccc(-c2[nH]c3ccccc3c2CCC(=O)N[C@@H]2C(=O)NC[C@H]2O)cc1` [Compound 124] cannot be ordered by IC50: < 250 nM for the first, < 250 nM for the second.

`O=C(CCc1c(-c2ccc(Cl)c(F)c2)[nH]c2ccccc12)N[C@@H]1C(=O)NC[C@H]1O` [Compound 120] and `Cc1cc(-c2[nH]c3ccccc3c2CCC(=O)N[C@@H]2C(=O)NC[C@H]2O)ccc1F` [Compound 125] cannot be ordered by IC50: < 250 nM for the first, < 250 nM for the second.

`COc1ccc(-c2[nH]c3ccccc3c2CCC(=O)N[C@@H]2C(=O)NC[C@H]2O)cc1` [Compound 121] and `O=C(CCc1c(-c2ccc(Cl)cc2)[nH]c2ccccc12)N[C@@H]1C(=O)NC[C@H]1O` [Compound 128, 3-[2-(4-chlorophenyl)-1H-indol-3-yl]-N-[(3S,4R)-4-hydroxy-2-oxo-pyrrolidin-3-yl]propanamide] cannot be ordered by IC50: < 250 nM for the first, < 250 nM for the second.

`Cc1ccc(-c2[nH]c3ccccc3c2CCC(=O)N[C@@H]2C(=O)NC[C@H]2O)c(F)c1` [Compound 122] and `Cc1ccc(-c2[nH]c3ccccc3c2CCC(=O)N[C@@H]2C(=O)NC[C@H]2O)cc1F` [Compound 126] cannot be ordered by IC50: < 250 nM for the first, < 250 nM for the second.

`O=C(CCc1c(-c2ccc(F)c(F)c2)[nH]c2ccccc12)N[C@@H]1C(=O)NC[C@H]1O` [Compound 129, 3-[2-(3,4-difluorophenyl)-1H-indol-3-yl]-N-[(3S,4R)-4-hydroxy-2-oxo-pyrrolidin-3-yl]propanamide] and `O=C(CCc1c(-c2ccc(C(F)F)cc2)[nH]c2ccccc12)N[C@@H]1C(=O)NC[C@H]1O` [Compound 131, 3-[2-[4-(difluoromethyl)phenyl]-1H-indol-3-yl]-N-[(3S,4R)-4-hydroxy-2-oxo-pyrrolidin-3-yl]propanamide] cannot be ordered by IC50: < 250 nM for the first, < 250 nM for the second.
